The target of series [1] is Glutamate carboxypeptidase 2 (Homo sapiens, UniProt Q04609). Put plainly: Inhibition of human recombinant GCP2 expressed in Schneider 2 cells preincubated for 15 mins using [3H]-NAAG/NAAG as substrate measured after 20 mins by liquid scintillation counting.
Another series concerns Plasma. The series can be described thus: Plasma concentration in CD1 mouse at 10 mg/kg, po administered as single dose measured after 0.25 to 2 hrs by LC/MS/MS analysis. It is filed as ADME, organism-based. Conditions: in vivo.
Series [2] has as its system Rattus norvegicus. The series can be described thus: Effect on absolute paw withdrawal latency to thermal stimulus in sham operated Sprague-Dawley rat at 10 mg/kg/day, po administered via oral gavage for 15 days measured over compound dosing. It is filed as ADME, organism-based. Conditions: in vivo, 360 h.
Series [3] in a line: Drug uptake in CD1 mouse sciatic nerve at 10 mg/kg, po administered as single dose measured after 0.25 to 2 hrs by LC/MS/MS analysis. It is filed as ADME, organism-based. The settings on record: in vivo.
Series [4] in a line: Tmax in CD1 mouse plasma at 10 mg/kg, po by LC/MS/MS analysis. It is filed as ADME, organism-based.
Series [5] concerns Rattus norvegicus. Put plainly: Analgesic activity in Sprague-Dawley rat chronic constrictive injury model of neuropathic pain assessed as increase in paw withdrawal latencies in response to thermal stimulus at 10 mg/kg/day, po administered via oral gavage for 15 days measured from day 4 of compound dosing. It is filed as functional, organism-based.
Series [6] can be described thus: Ratio of CD1 mouse sciatic nerve AUC (0 to 2 hrs) to CD1 mouse plasma AUC (0 to 2 hrs). The settings on record: in vivo. It is filed as ADME, cell-free.

Each structure is given as a SMILES string. Active and inactive are the calls of the source. No cut-off for these calls is given here.

Chain of Glutamate carboxypeptidase 2 (Q04609 whole entry): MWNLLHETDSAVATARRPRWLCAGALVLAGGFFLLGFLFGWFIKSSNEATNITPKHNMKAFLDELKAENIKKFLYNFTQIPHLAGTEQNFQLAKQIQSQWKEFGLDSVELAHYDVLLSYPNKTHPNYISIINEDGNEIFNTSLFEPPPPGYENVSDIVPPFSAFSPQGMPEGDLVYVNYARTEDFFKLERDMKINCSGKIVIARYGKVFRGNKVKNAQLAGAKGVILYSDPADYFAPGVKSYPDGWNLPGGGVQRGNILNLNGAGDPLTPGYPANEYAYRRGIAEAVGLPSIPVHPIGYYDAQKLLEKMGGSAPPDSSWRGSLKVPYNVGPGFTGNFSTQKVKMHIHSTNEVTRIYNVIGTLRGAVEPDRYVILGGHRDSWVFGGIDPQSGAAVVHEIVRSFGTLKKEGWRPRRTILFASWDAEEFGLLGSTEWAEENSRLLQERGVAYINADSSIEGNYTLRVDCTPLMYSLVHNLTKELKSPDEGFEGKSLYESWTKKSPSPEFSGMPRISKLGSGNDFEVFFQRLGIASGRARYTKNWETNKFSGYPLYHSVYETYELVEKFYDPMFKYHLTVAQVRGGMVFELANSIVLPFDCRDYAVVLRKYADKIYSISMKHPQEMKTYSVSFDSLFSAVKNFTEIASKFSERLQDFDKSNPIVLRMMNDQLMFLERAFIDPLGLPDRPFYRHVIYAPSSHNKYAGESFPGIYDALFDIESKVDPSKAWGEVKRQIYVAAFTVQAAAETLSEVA

Take `O=C(CCC(Cc1ccc(C(=O)O)cc1)C(=O)O)NO` (racemic): the IC50 in series [1] was 63 nM.
In the series on Plasma, `O=C(CC[C@@H](Cc1ccc(C(=O)O)cc1)C(=O)O)NO` displayed a concentration of 121 nM. For the same molecule, the Activity result in the series with Rattus norvegicus [2] is “Non-toxic”. Besides, the Drug uptake entry in series [3] was “Active”. Besides, the IC50 in series [1] was 97 nM. In series [4], the Tmax was 15 min. Moreover, the result in the series on Rattus norvegicus [5] was Active. In series [6], the “Ratio AUC” value worked out at 43%.
In the case of `O=C(CC[C@H](Cc1ccc(C(=O)O)cc1)C(=O)O)NO`, the 50% inhibitory concentration (IC50) in series [1] turned out to be 44 nM.

As a reminder, the IC50 is the concentration that inhibits the measured activity by half. Broadly, the Tmax is the time at which the peak concentration occurs.

The values above are taken from ChEMBL document CHEMBL3817757, “Unprecedented Binding Mode of Hydroxamate-Based Inhibitors of Glutamate Carboxypeptidase II: Structural Characterization and Biological Activity” (J Med Chem, 2016).
